Converted amounts (≈) assume the structure as drawn. The source made the active and inactive calls. The rule behind the calls is not given here.
Key:
Cell membrane [1] = assay: Induction of cell membrane depolarization in Staphylococcus aureus Newman assessed as bacterial cells with depolarized membrane potential at MIC incubated for 25 to 30 mins by DiOC2(3) probe based flow cytometry (reference value: 1.6%); assay type: subcellular; settings: time 25-30 min
Enterococcus faecium [2] = assay: Bactericidal activity against vancomycin-resistant Enterococcus faecium clinical strain assessed as reduction in colony forming units incubated for 18 hrs in broth followed by culturing on agar plate for 24 hrs; assay type: functional; settings: time 42 hrs, read-out: MBC99.9
Staphylococcus aureus [3] = assay: Ratio of MBC to MIC for methicillin-susceptible Staphylococcus aureus ATCC 25923; assay type: functional
[4] = Cytotoxicity against human BJ cells assessed as reduction in cell viability incubated for 24 hrs by MTT assay; assay type: toxicity, cell-based
[5] = test system: Staphylococcus epidermidis; assay: Antibacterial activity against methicillin-susceptible Staphylococcus epidermidis ATCC 12228 assessed as inhibition of bacterial growth incubated for 18 hrs by broth microdilution method; assay type: functional
Staphylococcus aureus [6] = assay: Bactericidal activity against methicillin-resistant Staphylococcus aureus clinical strain 19449 assessed as reduction in colony forming units incubated for 18 hrs in broth followed by culturing on agar plate for 24 hrs; assay type: functional; settings: time 42 hrs, read-out: MBC99.9
[7] = test system: Staphylococcus epidermidis; assay: Bactericidal activity against biofilm producer Staphylococcus epidermidis ATCC 35984 assessed as reduction in colony forming units incubated for 18 hrs in broth followed by culturing on agar plate for 24 hrs; assay type: functional; settings: time 42 hrs, read-out: MBC99.9
Staphylococcus aureus [8] = assay: Antibacterial activity against Staphylococcus aureus Newman assessed as inhibition of bacterial growth incubated for 18 hrs by broth microdilution method; assay type: functional
Staphylococcus aureus [9] = assay: Antibacterial activity against vancomycin-intermediate Staphylococcus aureus ATCC 700699 assessed as inhibition of bacterial growth incubated for 18 hrs by broth microdilution method; assay type: functional
Staphylococcus aureus [10] = assay: Bactericidal activity against biofilm producer Staphylococcus aureus RN450 assessed as reduction in colony forming units incubated for 18 hrs in broth followed by culturing on agar plate for 24 hrs; assay type: functional; settings: time 42 hrs, read-out: MBC99.9
[11] = test system: Staphylococcus epidermidis; assay: Antibacterial activity against linezolid-resistant Staphylococcus epidermidis NIL 4399/19 assessed as inhibition of bacterial growth incubated for 18 hrs by broth microdilution method; assay type: functional
Staphylococcus aureus [12] = assay: Antibacterial activity against methicillin-susceptible Staphylococcus aureus ATCC 25923 assessed as inhibition of bacterial growth measured for 18 hrs by OD600 based analysis; assay type: functional, organism-based
Streptococcus pneumoniae [13] = assay: Antibacterial activity against Streptococcus pneumoniae ATCC 49619 assessed as inhibition of bacterial growth incubated for 18 hrs by broth microdilution method; assay type: functional
[14] = test system: Staphylococcus epidermidis; assay: Antibacterial activity against biofilm producer Staphylococcus epidermidis ATCC 35984 assessed as inhibition of bacterial growth incubated for 18 hrs by broth microdilution method; assay type: functional
Cell membrane [15] = assay: Induction of cell membrane depolarization in methicillin-resistant Staphylococcus aureus 19449 assessed as bacterial cells with polarized membrane potential at MIC incubated for 25 to 30 mins by DiOC2(3) probe based flow cytometry (reference value: 98.8%); assay type: subcellular; settings: time 25-30 min
Enterococcus faecium [16] = assay: Ratio of MBC to MIC for vancomycin-resistant Enterococcus faecium clinical strain; assay type: functional
Streptococcus pneumoniae [17] = assay: Antibacterial activity against Oxacillin-resistant Streptococcus pneumoniae O/19/4541 assessed as inhibition of bacterial growth incubated for 18 hrs by broth microdilution method; assay type: functional
Escherichia coli = assay: Antibacterial activity against Escherichia coli ATCC 25922 assessed as inhibition of bacterial growth incubated for 18 hrs by broth microdilution method; assay type: functional
[18] = test system: Staphylococcus epidermidis; assay: Ratio of MBC to MIC for methicillin-susceptible Staphylococcus epidermidis ATCC 12228; assay type: functional
Enterococcus faecalis = assay: Ratio of MBC to MIC for Enterococcus faecalis ATCC 29212; assay type: functional
Staphylococcus aureus [19] = assay: Antibacterial activity against vancomycin-intermediate Staphylococcus aureus ATCC 700699 assessed as inhibition of bacterial growth measured for 18 hrs by OD600 based analysis; assay type: functional, organism-based
[20] = test system: Staphylococcus epidermidis; assay: Ratio of MBC to MIC for biofilm producer Staphylococcus epidermidis ATCC 35984; assay type: functional
Cell membrane [21] = assay: Induction of cell membrane depolarization in vancomycin-resistant Enterococcus faecium clinical strain assessed as bacterial cells with depolarized membrane potential at 4 times MIC incubated for 25 to 30 mins by DiOC2(3) probe based flow cytometry (reference value: 0.8%); assay type: subcellular; settings: time 25-30 min
Cell membrane [22] = assay: Induction of cell membrane depolarization in Staphylococcus aureus Newman assessed as bacterial cells with depolarized membrane potential at 2XMIC incubated for 25 to 30 mins by DiOC2(3) probe based flow cytometry (reference value: 1.6%); assay type: subcellular; settings: time 25-30 min
[23] = Cytotoxicity against human BJ cells assessed as cell viability at 25 ug/ml incubated for 24 hrs by MTT assay; assay type: toxicity, cell-based; settings: at 25 µg/mL, read-out: Activity
Staphylococcus aureus [24] = assay: Ratio of MBC to MIC for vancomycin-intermediate Staphylococcus aureus ATCC 700699; assay type: functional
Cell membrane [25] = assay: Induction of cell membrane depolarization in methicillin-resistant Staphylococcus aureus 19449 assessed as bacterial cells with depolarized membrane potential at 2XMIC incubated for 25 to 30 mins by DiOC2(3) probe based flow cytometry (reference value: 0.7%); assay type: subcellular; settings: time 25-30 min
Cell membrane [26] = assay: Induction of cell membrane depolarization in vancomycin-resistant Enterococcus faecium clinical strain assessed as bacterial cells with depolarized membrane potential at MIC incubated for 25 to 30 mins by DiOC2(3) probe based flow cytometry (reference value: 0.8%); assay type: subcellular; settings: time 25-30 min
Cell membrane [27] = assay: Induction of cell membrane depolarization in vancomycin-resistant Enterococcus faecium clinical strain assessed as bacterial cells with polarized membrane potential at 2XMIC incubated for 25 to 30 mins by DiOC2(3) probe based flow cytometry (reference value: 96.8%); assay type: subcellular; settings: time 25-30 min
Staphylococcus aureus [28] = assay: Antibacterial activity against methicillin-resistant Staphylococcus aureus clinical strain 19449 assessed as inhibition of bacterial growth incubated for 18 hrs by broth microdilution method; assay type: functional
[29] = Intrinsic clearance in rat liver microsomes at 0.4 mg/ml preincubated for 10 mins followed by NADPH-regenerating system addition for 60 mins and measured per mg of protein by UPLC-MS analysis; assay type: ADME, Microsome; settings: time 70 min, read-out: CLH
Cell membrane [30] = assay: Induction of cell membrane depolarization in Staphylococcus aureus Newman assessed as bacterial cells with polarized membrane potential at 4 times MIC incubated for 25 to 30 mins by DiOC2(3) probe based flow cytometry (reference value: 94.3%); assay type: subcellular; settings: time 25-30 min

O=C(Nc1cccc(Cl)c1)NC1CCN(CCC(Oc2cccc(C(F)(F)F)c2)c2ccccc2)CC1 (racemic)
Activity (Cell membrane [1]): 89% | MBC (Enterococcus faecium [2]): 6.25 µg/mL (≈ 11.7 µM) | Ratio (Staphylococcus aureus [3]): 4 | IC50 at 24 h [4]: > 25 µg/mL | MIC [5]: 3.12 µg/mL (≈ 5.87 µM) | MBC (Staphylococcus aureus [6]): 3.12 µg/mL (≈ 5.87 µM) | MBC [7]: 6.25 µg/mL (≈ 11.7 µM) | MIC (Staphylococcus aureus [8]): 1.56 µg/mL (≈ 2.93 µM) | MIC (Staphylococcus aureus [9]): 3.12 µg/mL (≈ 5.87 µM) | MBC (Staphylococcus aureus [10]): 6.25 µg/mL (≈ 11.7 µM) | MIC [11]: 3.12 µg/mL (≈ 5.87 µM) | Activity (Staphylococcus aureus [12]): Active | MIC (Streptococcus pneumoniae [13]): 6.25 µg/mL (≈ 11.7 µM) | MIC [14]: 1.56 µg/mL (≈ 2.93 µM) | Activity (Cell membrane [15]): 6% | Ratio (Enterococcus faecium [16]): 4 | MIC (Streptococcus pneumoniae [17]): 12.5 µg/mL (≈ 23.5 µM) | MIC (Escherichia coli): > 12.5 µg/mL | Ratio [18]: 1 | Ratio (Enterococcus faecalis): 4 | Activity (Staphylococcus aureus [19]): Active | Ratio [20]: 4 | Activity (Cell membrane [21]): 89.3% | Activity (Cell membrane [22]): 89.3% | viability at 24 h, 25 ug/ml [23]: 97% | Ratio (Staphylococcus aureus [24]): 4 | Activity (Cell membrane [25]): 96.8% | Activity (Cell membrane [26]): 34.8% | Activity (Cell membrane [27]): 0.3% | MIC (Staphylococcus aureus [28]): 0.78 µg/mL (≈ 1.47 µM) | microsomal CLint [29]: 8.94 µL/min/mg | Activity (Cell membrane [30]): 0%

From ChEMBL document CHEMBL5346933, “Design and synthesis of novel arylurea derivatives of aryloxy(1-phenylpropyl) alicyclic diamines with antimicrobial activity against multidrug-resistant Gram-positive bacteria” (Eur J Med Chem, 2023)
